# The source made the active and inactive calls.
# Columns and labels:
# Streptococcus = assay: Group A Streptococcus viability loss, dose response, counter-screen for streptokinase expression inhibitor project, luminescence, BacTiterGlo (AID 1915); format: functional, organism-based;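 note: potency for reduction of bacterial viability or growth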
# [1] = half-maximal inhibitory concentration for glucagon-like peptide-1 release, STC-1 cell line, dose-response (AID 1117345); format: functional, cell-based
# [2] = NIH-3T3 fibroblast cytotoxicity, dose response, cytotoxicity control, cell-based, fluorescence, Alamar Blue, secondary assay (AID 2327); format: functional;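 note: NIH-3T3 mouse fibroblasts cultured with fluconazole at 8 µg/mL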
# [3] = molecular target: 1-acylglycerol-3-phosphate O-acyltransferase ABHD5/Perilipin-5 (Homo sapiens, UniProt Q00G26+Q8WTS1); assay: Luminescence-based biochemical high throughput dose response assay for inhibitors of the interaction of the lipase co-activator protein, abhydrolase domain containing 5 (ABHD5) with perilipin-5 (MLDP; PLIN5) (2K validation set). [Related pubchem assays (depositor defined):AID493035, AID493241]
# [4] = cytotoxicity toward HT-29 cells – cell-based, CellTiter-Glo luminescence, IC50, dose response (AID 1117330); format: functional
# [5] = molecular target: Serine/threonine-protein kinase PLK4 (Homo sapiens, UniProt O00444); format: functional;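 note: PLK4 measured as one member of a kinome-wide kinase profiling panel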
# Chain of Serine/threonine-protein kinase PLK4 (O00444 whole entry): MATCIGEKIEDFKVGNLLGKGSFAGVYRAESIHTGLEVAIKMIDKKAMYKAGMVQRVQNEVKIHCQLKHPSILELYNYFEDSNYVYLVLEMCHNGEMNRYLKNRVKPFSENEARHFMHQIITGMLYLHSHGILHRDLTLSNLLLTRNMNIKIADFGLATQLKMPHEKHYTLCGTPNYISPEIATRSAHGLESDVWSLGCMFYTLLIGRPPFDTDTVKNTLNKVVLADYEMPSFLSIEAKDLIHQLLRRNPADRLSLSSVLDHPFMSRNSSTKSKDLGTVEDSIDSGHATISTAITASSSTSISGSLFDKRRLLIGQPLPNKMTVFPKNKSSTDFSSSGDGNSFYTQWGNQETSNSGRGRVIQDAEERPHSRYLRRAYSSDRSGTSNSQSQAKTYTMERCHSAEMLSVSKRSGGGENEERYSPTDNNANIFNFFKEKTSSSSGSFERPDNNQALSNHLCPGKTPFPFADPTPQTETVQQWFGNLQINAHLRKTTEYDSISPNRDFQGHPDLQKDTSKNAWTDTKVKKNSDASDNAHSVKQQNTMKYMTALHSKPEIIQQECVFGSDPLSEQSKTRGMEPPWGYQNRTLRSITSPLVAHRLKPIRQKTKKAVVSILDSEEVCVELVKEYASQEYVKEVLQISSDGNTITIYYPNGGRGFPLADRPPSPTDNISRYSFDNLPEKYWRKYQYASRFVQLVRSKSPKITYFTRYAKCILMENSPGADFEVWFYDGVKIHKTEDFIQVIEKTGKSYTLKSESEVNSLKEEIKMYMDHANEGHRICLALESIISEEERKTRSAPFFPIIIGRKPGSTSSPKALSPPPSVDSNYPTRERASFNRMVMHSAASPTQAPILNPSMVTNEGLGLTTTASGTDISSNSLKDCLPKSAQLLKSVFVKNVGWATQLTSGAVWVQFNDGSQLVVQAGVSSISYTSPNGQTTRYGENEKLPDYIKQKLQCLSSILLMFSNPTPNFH
# [6] = molecular target: Serine/threonine-protein kinase 3 (Homo sapiens, UniProt Q13188); format: functional;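 note: measured as one member of a kinome-wide kinase panel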
# Misshapen-like kinase 1 = Misshapen-like kinase 1 (Homo sapiens, UniProt Q8N4C8); format: functional;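 note: kinome panel screen with MINK as the panel member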
# [7] = molecular target: Cyclin-dependent kinase 8 (Homo sapiens, UniProt P49336); assay: Navigating the Kinome. Panel member name: CDK8; format: functional
# [8] = molecular target: Leucine-rich repeat serine/threonine-protein kinase 2 (Homo sapiens, UniProt Q5S007); format: functional;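 note: value from a broad kinome-wide panel profiling study in which LRRK2 was one of the kinases tested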
# [9] = molecular target: Mitogen-activated protein kinase 14 (Homo sapiens, UniProt Q16539); format: functional;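 note: part of a kinome-wide panel, MAPK14 entry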
# [10] = molecular target: cGMP-dependent protein kinase 1 (Homo sapiens, UniProt Q13976); format: functional;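 note: value from a kinome panel screen with PRKG1 as the panel member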
# Chain of cGMP-dependent protein kinase 1 (Q13976 whole entry): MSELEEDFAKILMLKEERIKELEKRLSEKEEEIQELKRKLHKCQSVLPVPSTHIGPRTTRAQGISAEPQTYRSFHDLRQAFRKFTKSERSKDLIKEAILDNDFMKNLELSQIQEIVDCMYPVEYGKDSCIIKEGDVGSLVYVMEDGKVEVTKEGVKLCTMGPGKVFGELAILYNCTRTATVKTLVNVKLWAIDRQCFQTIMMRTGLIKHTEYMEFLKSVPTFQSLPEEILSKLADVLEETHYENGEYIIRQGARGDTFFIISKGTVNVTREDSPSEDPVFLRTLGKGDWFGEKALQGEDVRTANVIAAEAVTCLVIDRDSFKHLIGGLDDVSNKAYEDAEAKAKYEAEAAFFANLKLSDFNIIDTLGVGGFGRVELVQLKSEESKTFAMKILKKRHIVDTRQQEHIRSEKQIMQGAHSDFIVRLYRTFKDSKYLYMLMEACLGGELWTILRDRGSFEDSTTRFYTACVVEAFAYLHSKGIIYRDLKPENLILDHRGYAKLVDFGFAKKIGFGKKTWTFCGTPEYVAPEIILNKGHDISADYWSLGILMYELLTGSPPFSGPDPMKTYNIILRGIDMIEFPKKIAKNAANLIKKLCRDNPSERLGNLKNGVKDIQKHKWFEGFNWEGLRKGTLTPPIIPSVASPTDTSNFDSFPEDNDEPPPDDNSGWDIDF
# [11] = molecular target: Lymphokine-activated killer T-cell-originated protein kinase (Homo sapiens, UniProt Q96KB5); format: functional;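 note: value comes from a kinase panel screen in which TOPK was one of the panel members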
# Chain of Lymphokine-activated killer T-cell-originated protein kinase (Q96KB5 whole entry): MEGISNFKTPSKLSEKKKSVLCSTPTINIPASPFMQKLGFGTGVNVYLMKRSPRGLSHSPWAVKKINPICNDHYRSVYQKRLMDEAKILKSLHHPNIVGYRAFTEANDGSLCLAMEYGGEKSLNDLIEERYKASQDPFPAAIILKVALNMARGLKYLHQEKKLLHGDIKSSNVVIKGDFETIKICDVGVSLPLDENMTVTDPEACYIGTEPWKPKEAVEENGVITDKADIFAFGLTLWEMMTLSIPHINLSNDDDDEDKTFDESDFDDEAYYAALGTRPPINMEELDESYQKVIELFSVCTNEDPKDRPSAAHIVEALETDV
# [12] = molecular target: Serine/threonine-protein kinase PAK 4 (Homo sapiens, UniProt O96013); format: functional;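 note: value obtained within a kinome profiling panel in which PAK4 was one of the panel members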
# Chain of Serine/threonine-protein kinase PAK 4 (O96013 whole entry): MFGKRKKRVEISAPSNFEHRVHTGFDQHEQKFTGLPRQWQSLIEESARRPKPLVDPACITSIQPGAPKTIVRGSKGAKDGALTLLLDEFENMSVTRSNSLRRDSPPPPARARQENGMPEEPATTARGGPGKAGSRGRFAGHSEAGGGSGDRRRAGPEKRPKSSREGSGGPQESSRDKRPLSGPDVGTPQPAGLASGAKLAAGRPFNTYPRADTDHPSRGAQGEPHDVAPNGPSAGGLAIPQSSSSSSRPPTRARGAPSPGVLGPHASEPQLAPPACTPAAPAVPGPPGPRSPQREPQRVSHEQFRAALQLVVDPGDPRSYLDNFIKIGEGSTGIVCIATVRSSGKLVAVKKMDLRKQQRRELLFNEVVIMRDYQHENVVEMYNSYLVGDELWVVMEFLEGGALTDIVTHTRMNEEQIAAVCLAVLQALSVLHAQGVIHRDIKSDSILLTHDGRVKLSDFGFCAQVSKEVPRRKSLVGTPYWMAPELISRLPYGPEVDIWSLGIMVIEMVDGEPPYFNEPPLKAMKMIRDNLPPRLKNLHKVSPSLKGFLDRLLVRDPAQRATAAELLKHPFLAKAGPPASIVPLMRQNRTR
# [13] = molecular target: cAMP-dependent protein kinase catalytic subunit PRKX (Homo sapiens, UniProt P51817); format: functional
# Activated CDC42 kinase 1 = Activated CDC42 kinase 1 (Homo sapiens, UniProt Q07912); assay: Navigating the Kinome. Panel member name: ACK1; format: functional
# [14] = molecular target: Serine/threonine-protein kinase D3 (Homo sapiens, UniProt O94806); format: functional;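 note: determined within a kinase panel screen, with PRKCN as the panel member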
# [15] = molecular target: Tyrosine-protein kinase Srms (Homo sapiens, UniProt Q9H3Y6); format: functional;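 note: SRMS measured as one member of a kinome-wide kinase profiling panel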
# [16] = molecular target: Mitogen-activated protein kinase kinase kinase 20 (Homo sapiens, UniProt Q9NYL2); format: functional
# [17] = molecular target: Mitogen-activated protein kinase 12 (Homo sapiens, UniProt P53778); format: functional;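 note: measured as one member of a kinome-wide kinase profiling panel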
# [18] = molecular target: Calcium/calmodulin-dependent protein kinase type II subunit gamma (Homo sapiens, UniProt Q13555); format: functional
# [19] = molecular target: Cyclin-dependent kinase 5 (Homo sapiens, UniProt Q00535); format: functional;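 note: CDK5 measured as one member of a kinase profiling panel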
# Chain of Cyclin-dependent kinase 5 (Q00535 whole entry): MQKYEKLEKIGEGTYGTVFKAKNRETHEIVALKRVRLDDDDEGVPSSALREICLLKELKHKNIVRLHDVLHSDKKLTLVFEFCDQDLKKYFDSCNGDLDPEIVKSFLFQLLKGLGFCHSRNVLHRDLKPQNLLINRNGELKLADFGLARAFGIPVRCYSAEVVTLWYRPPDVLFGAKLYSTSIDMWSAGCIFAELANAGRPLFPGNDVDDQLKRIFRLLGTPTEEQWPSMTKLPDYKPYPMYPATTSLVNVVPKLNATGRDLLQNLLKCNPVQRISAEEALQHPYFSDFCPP
# [20] = molecular target: Protein kinase C iota type (Homo sapiens, UniProt P41743); format: functional;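 note: measured within a kinome-wide kinase panel, PRKCI as panel member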
# Aurora kinase A = Aurora kinase A (Homo sapiens, UniProt O14965); format: functional;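 note: value from the Navigating the Kinome kinase panel profiling, panel entry STK6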
# [21] = molecular target: Mitogen-activated protein kinase 8 (Homo sapiens, UniProt P45983); format: functional;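 note: value comes from one member of a kinome-wide kinase profiling panel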
# [22] = molecular target: BDNF/NT-3 growth factors receptor (Homo sapiens, UniProt Q16620); format: functional;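 note: NTRK2 measured as one member of a broad kinome-wide kinase profiling panel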
# [23] = molecular target: Serine/threonine-protein kinase DCLK1 (Homo sapiens, UniProt O15075); format: functional;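 note: affinity for DCLK1 (listed as DCAMKL1) measured as one member of a kinome-wide kinase profiling panel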
# [24] = molecular target: Serine/threonine-protein kinase PLK1 (Homo sapiens, UniProt P53350); format: functional;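 note: PLK1 measured as one member of a kinome-wide profiling panel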
# Chain of Serine/threonine-protein kinase PLK1 (P53350 whole entry): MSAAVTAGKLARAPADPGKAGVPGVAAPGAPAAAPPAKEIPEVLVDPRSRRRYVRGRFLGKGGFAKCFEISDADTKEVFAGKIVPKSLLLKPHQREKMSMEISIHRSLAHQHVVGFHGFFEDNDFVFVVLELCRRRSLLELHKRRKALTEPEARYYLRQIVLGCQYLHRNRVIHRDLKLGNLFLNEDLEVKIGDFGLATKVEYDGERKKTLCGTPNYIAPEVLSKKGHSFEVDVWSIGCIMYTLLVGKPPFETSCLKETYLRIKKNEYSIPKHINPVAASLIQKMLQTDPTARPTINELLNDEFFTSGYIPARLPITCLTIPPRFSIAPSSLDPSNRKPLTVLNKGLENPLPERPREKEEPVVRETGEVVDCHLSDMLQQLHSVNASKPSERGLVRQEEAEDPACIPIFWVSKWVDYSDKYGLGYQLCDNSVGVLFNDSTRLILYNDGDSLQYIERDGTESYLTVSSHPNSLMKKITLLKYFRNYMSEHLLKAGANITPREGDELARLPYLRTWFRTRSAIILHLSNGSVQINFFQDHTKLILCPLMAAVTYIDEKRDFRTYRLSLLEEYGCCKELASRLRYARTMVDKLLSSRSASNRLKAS
# [25] = molecular target: Tyrosine-protein kinase JAK2 (Homo sapiens, UniProt O60674); format: functional;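 note: JAK2 tested as one member of a kinase panel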
# [26] = molecular target: Tyrosine-protein kinase receptor TYRO3 (Homo sapiens, UniProt Q06418); format: functional;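 note: TYRO3 value obtained as one member of a kinome-wide profiling panel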
# [27] = molecular target: Dual specificity tyrosine-phosphorylation-regulated kinase 1A (Homo sapiens, UniProt Q13627); format: functional;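 note: measured against DYRK1A as one member of a broad kinome profiling panel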
# [28] = molecular target: Leukocyte tyrosine kinase receptor (Homo sapiens, UniProt P29376); assay: Navigating the Kinome. Panel member name: LTK; format: functional
# [29] = molecular target: Mitogen-activated protein kinase 13 (Homo sapiens, UniProt O15264); format: functional
# [30] = molecular target: Protein-tyrosine kinase 6 (Homo sapiens, UniProt Q13882); format: functional
# [31] = molecular target: Receptor tyrosine-protein kinase erbB-4 (Homo sapiens, UniProt Q15303); format: functional;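 note: ERBB4 member of a kinome-wide kinase profiling panel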
# [32] = molecular target: Ribosomal protein S6 kinase beta-1 (Homo sapiens, UniProt P23443); format: functional;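 note: measured as one member of a kinome-wide profiling panel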
# [33] = molecular target: Platelet-derived growth factor receptor beta (Homo sapiens, UniProt P09619); format: functional;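 note: value comes from a kinome panel, with PDGFRB tested as one panel member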
# [34] = molecular target: Serine/threonine-protein kinase MRCK alpha (Homo sapiens, UniProt Q5VT25); format: functional
# [35] = molecular target: Receptor-type tyrosine-protein kinase FLT3 (Homo sapiens, UniProt P36888); format: functional;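 note: FLT3 was tested as one member of a kinome-wide kinase panel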
# [36] = molecular target: Inhibitor of nuclear factor kappa-B kinase subunit epsilon (Homo sapiens, UniProt Q14164); assay: Navigating the Kinome. Panel member name: IKBKE; format: functional
# Chain of Inhibitor of nuclear factor kappa-B kinase subunit epsilon (Q14164 whole entry): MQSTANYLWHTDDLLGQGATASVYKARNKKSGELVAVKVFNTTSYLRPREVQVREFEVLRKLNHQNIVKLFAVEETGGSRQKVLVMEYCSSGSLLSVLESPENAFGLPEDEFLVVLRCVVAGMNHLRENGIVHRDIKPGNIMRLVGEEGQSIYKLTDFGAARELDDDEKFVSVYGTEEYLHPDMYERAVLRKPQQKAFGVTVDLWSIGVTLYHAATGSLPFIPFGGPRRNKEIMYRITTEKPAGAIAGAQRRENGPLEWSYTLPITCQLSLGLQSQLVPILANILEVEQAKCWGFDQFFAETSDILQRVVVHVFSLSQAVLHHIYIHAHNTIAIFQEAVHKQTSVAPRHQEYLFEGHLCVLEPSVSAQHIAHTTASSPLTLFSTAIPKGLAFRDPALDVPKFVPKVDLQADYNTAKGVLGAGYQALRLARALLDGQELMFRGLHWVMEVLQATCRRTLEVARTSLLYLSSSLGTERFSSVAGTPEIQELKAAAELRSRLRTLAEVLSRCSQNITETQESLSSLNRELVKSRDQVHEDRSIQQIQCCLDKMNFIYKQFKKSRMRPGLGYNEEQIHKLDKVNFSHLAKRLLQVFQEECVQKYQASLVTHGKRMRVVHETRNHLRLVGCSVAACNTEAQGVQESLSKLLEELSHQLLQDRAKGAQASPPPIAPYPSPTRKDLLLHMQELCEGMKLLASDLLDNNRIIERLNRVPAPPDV
# [37] = molecular target: RAC-gamma serine/threonine-protein kinase (Homo sapiens, UniProt Q9Y243); format: functional
# [38] = molecular target: Calcium/calmodulin-dependent protein kinase type II subunit delta (Homo sapiens, UniProt Q13557); format: functional
# Chain of Calcium/calmodulin-dependent protein kinase type II subunit delta (Q13557 whole entry): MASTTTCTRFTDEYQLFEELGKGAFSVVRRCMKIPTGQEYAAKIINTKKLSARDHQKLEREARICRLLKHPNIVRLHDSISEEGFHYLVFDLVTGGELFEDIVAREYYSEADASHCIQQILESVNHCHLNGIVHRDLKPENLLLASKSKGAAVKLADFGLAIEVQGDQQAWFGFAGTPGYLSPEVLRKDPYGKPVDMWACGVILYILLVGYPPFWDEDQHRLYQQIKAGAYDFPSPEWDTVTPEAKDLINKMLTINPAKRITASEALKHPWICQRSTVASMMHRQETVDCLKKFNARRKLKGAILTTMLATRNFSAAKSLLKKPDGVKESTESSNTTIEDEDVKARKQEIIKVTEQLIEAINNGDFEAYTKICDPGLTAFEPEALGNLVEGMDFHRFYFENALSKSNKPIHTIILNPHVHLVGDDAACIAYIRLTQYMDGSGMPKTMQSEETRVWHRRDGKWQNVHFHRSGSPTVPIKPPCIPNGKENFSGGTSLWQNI
# [39] = inhibitors of SNCA 5'UTR-driven reporter translation, confirmation, H4 neuroglioma cells, luminescence (AID 1988); format: functional, cell-based
# INS1 = assay: beta cell apoptosis inhibitors, cytokine rescue, dose response, luminescence, retest (AID 449756); format: functional, cell-based; conditions: Rattus norvegicus;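 note: cell death triggered by IL-1 beta plus TNF-alpha plus IFN-gamma mixture; protective hits raise ATP signal compared with cytokine alone wells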
# [40] = Shn3 3'UTR reporter inhibitors, dose response, cell-based, Clone20 osteoblasts, firefly luciferase, cherry-picked (AID 624132); format: functional;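 note: firefly luciferase luminescence from reporter carrying the Shn3 3'UTR in osteoblasts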
# Phospholipase A2 = Phospholipase A2 (Homo sapiens, UniProt P04054); format: functional;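 note: confirmatory dose-response counterscreen on phospholipase A2, testing hits that came from an ultra-high-throughput screen for ATG4B inhibitors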
# Chain of Phospholipase A2 (P04054 whole entry): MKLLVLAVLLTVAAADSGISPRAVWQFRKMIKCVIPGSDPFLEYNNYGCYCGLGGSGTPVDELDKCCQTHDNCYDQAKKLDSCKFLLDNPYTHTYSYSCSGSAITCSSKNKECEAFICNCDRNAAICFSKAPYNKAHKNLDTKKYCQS
structure (smiles),measurement,setting,value
CCc1oc2ccccc2c1C(=O)c1cc(Br)c(O)c(Br)c1 [BENZBROMARONE],EC50,Streptococcus,> 150 µM (not active)
same,IC50,[1],> 40 µM (inactive)
same,EC50,[2],> 160 µM (inactive)
same,IC50,[3],18.8 µM (inactive)
same,IC50,[4],1.14 µM (active)
N#Cc1ccc2[nH]c(O)c(-c3ccc(CN4CCOCC4)cn3)c2c1 [AZD-1080],Ki,[5],> 3.98 µM (inactive)
same,Ki,[6],> 7.94 µM (inactive)
same,Ki,Misshapen-like kinase 1,6.31 µM (active)
same,Ki,[7],> 3.98 µM (inactive)
same,Ki,[8],> 2.51 µM (inactive)
same,Ki,[9],> 3.98 µM (inactive)
same,Ki,[10],> 2 µM (inactive)
same,Ki,[11],> 10 µM (inactive)
same,Ki,[12],> 5.01 µM (inactive)
same,Ki,[13],> 2.51 µM (inactive)
same,Ki,Activated CDC42 kinase 1,> 3.98 µM (inactive)
same,Ki,[14],> 5.01 µM (inactive)
same,Ki,[15],> 1.58 µM (inactive)
same,Ki,[16],> 7.94 µM (inactive)
same,Ki,[17],> 6.31 µM (inactive)
same,Ki,[18],5.01 µM (active)
same,Ki,[19],0.398 µM (active)
same,Ki,[20],> 5.01 µM (inactive)
same,Ki,Aurora kinase A,> 1.58 µM (inactive)
same,Ki,[21],> 5.01 µM (inactive)
same,Ki,[22],> 3.98 µM (inactive)
same,Ki,[23],> 10 µM (inactive)
same,Ki,[24],> 7.94 µM (inactive)
same,Ki,[25],> 2 µM (inactive)
same,Ki,[26],> 2.51 µM (inactive)
same,Ki,[27],> 3.16 µM (inactive)
same,Ki,[28],> 2.51 µM (inactive)
same,Ki,[29],> 7.94 µM (inactive)
same,Ki,[30],> 2.51 µM (inactive)
same,Ki,[31],> 3.98 µM (inactive)
same,Ki,[32],> 6.31 µM (inactive)
same,Ki,[33],> 2 µM (inactive)
same,Ki,[34],> 10 µM (inactive)
same,Ki,[35],> 3.16 µM (inactive)
same,Ki,[36],> 3.16 µM (inactive)
same,Ki,[37],> 10 µM (inactive)
same,Ki,[38],> 6.31 µM (inactive)
O=C1C=C(N2CCOCC2)c2ccccc2C1=O,EC50,[39],8.41 µM (active)
same,AC50,INS1,4.72 µM (active)
same,AC50,[40],7.16 µM (active)
same,IC50,Phospholipase A2,> 80 µM (inactive)

# From ChEMBL document CHEMBL1201862, “PubChem BioAssay data set” (2004)
